Measurements from patent US10538498B2, “1,3,4-oxadiazole sulfonamide derivative compounds as histone deacetylase 6 inhibitor, and the pharmaceutical composition comprising the same” (Chong Kun Dang Pharmaceutical Corp., priority 2015, dated 2020).

Target: T1, human recombinant HDAC6 (Homo sapiens, UniProt Q9UBN7)
T1 construct: purchased Calbiochem 382180
T1 sequence (Q9UBN7 1-1215): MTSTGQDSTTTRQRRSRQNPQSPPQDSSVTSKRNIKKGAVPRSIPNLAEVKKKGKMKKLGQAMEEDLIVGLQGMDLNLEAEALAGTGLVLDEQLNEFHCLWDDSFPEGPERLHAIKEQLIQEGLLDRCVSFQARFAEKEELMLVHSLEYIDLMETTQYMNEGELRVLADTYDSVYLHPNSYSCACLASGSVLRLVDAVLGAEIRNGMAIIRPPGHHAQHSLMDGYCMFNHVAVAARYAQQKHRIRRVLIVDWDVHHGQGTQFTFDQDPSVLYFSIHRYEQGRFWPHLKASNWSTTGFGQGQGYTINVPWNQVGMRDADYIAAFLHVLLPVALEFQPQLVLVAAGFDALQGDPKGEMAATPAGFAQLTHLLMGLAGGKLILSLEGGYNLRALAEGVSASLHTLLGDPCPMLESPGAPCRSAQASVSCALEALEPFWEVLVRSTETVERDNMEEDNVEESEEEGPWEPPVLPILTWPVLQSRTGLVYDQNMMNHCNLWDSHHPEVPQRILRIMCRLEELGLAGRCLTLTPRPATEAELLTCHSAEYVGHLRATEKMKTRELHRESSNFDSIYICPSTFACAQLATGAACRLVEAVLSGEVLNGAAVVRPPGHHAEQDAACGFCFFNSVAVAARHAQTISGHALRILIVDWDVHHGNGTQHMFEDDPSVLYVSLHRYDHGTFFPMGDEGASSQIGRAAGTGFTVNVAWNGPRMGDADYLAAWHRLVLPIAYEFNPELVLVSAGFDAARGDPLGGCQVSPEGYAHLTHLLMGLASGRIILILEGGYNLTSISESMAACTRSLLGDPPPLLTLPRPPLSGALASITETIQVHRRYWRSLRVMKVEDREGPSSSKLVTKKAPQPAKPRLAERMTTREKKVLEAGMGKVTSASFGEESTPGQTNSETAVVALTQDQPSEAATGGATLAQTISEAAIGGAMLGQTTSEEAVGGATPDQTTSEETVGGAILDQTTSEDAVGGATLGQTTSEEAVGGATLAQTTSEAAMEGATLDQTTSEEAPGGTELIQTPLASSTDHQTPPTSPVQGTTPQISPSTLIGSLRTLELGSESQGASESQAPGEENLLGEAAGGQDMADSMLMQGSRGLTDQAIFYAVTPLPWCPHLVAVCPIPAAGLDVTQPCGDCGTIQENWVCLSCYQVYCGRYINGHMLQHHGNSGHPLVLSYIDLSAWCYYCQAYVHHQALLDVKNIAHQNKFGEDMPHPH
Assay: HDAC6 enzyme activity inhibition assay (HDAC Fluorimetric Drug Discovery Kit)
Assay type: biochemical
Conditions: for HDAC6 selectivity (fold): HDAC1 vs HDAC6; for IC50: same protocol as the HDAC1 enzyme activity test
Procedure: In order to examine the HDAC6 selectivity of the compounds of formula I of the present invention by HDAC1 and HDAC6 enzymatic activity inhibition assays, an experiment was performed using a conventional substance as a control.
HDAC enzyme activity was measured using a HDAC Fluorimetric Drug Discovery Kit (BML-AK511, 516, Enzo Life Science). For the HDAC1 enzyme activity test, human recombinant HDAC1 (BML-SE456) was used as an enzyme source, and Fluor de Lys®-“SIRT1 (BNL-KI177) was used as a substrate. A 5-fold dilution of the compound was seeded into a 96-well plate, and then 0.3 μg of the enzyme and 10 μM of the substrate were added to each well of the plate and allowed to react at 30° C. for 60 minutes. Then, Fluor de Lys®-Developer II (BML-KI176) was added thereto and allowed to react for 30 minutes, after which the fluorescence value (Ex 360, Em 460) was measured using a multi-plate reader (Flexstation 3, Molecular Device). The HDAC6 enzyme was tested using human recombinant HDAC6 (382180) (Calbiochem) according to the same protocol as the HDAC1 enzyme activity test method. Based on the resulting values, each IC50 value was calculated using GraphPad Prism4.0 program.

Row | HDAC6 selectivity (fold) | IC50 [nM] | Compound
1 | 741 | 135 | O=S(=O)(CCCN1CCC(F)C1)N(Cc1ccc(-c2nnc(C(F)F)o2)cc1)c1ccccc1 (stereo in doubt) [Compound 11724, (R)—N-(4-(5-(difluoromethyl)-1,3,4-oxadiazol-2-yl)benzyl)-3-(3-fluoropyrrolidin-1-yl)-N-phenylpropane-1-sulfonamide]
2 | 302 | 331 | CS(=O)(=O)N(Cc1ccccn1)Cc1ccc(-c2nnc(C(F)(F)F)o2)cc1F [Compound 11044, N-(2-fluoro-4-(5-(trifluoromethyl)-1,3,4-oxadiazol-2-yl)benzyl)-N-(pyridin-2-ylmethyl)methanesulfonamide]
3 | 633 | 158 | CS(=O)(=O)N(Cc1ccc(-c2nnc(C(F)(F)F)o2)cc1)Cc1ccccn1 [Compound 11045, N-(pyridin-2-ylmethyl)-N-(4-(5-(trifluoromethyl)-1,3,4-oxadiazol-2-yl)benzyl)methanesulfonamide]
4 | 29 | 3470 | COc1ccc(S(=O)(=O)NCc2ccc(-c3nnc(C(F)(F)F)o3)cc2)cc1 [Compound 11078, 4-methoxy-N-(4-(5-(trifluoromethyl)-1,3,4-oxadiazol-2-yl)benzyl)benzenesulfonamide]
5 | 2631 | 38 | CS(=O)(=O)N(Cc1ccc(-c2nnc(C(F)F)o2)cc1F)c1cccnc1 [Compound 11120, N-(4-(5-(difluoromethyl)-1,3,4-oxadiazol-2-yl)-2-fluorobenzyl)-N-(pyridin-3-yl)methanesulfonamide]
6 | 39 | 2540 | CS(=O)(=O)NCc1ccc(-c2nnc(C(F)(F)F)o2)cc1 [Compound 11121, N-(4-(5-(trifluoromethyl)-1,3,4-oxadiazol-2-yl)benzyl)methanesulfonamide]
7 | 192 | 520 | CS(=O)(=O)N(Cc1ccccn1)Cc1ccc(-c2nnc(C(F)(F)F)o2)cn1 [Compound 11128, N-(pyridin-2-ylmethyl)-N-((5-(5-(trifluoromethyl)-1,3,4-oxadiazol-2-yl)pyridin-2-yl)methyl)methanesulfonamide]
8 | 48 | 2100 | COc1cc(-c2nnc(C(F)(F)F)o2)ccc1CN(c1cccnc1)S(C)(=O)=O [Compound 11129, N-(2-methoxy-4-(5-(trifluoromethyl)-1,3,4-oxadiazol-2-yl)benzyl)-N-(pyridin-3-yl)methanesulfonamide]
9 | 290 | 345 | CS(=O)(=O)N(Cc1ccc(-c2nnc(C(F)(F)F)o2)c(F)c1)c1cccnc1 [Compound 11133, N-(3-fluoro-4-(5-(trifluoromethyl)-1,3,4-oxadiazol-2-yl)benzyl)-N-(pyridin-3-yl)methanesulfonamide]
10 | 741 | 135 | O=S(=O)(c1cccnc1)N(Cc1ccc(-c2nnc(C(F)(F)F)o2)cc1)c1ccccc1 [Compound 11151, N-phenyl-N-(4-(5-(trifluoromethyl)-1,3,4-oxadiazol-2-yl)benzyl)pyridine-3-sulfonamide]
11 | 1724 | 58 | O=S(=O)(c1cccnc1)N(Cc1ccc(-c2nnc(C(F)F)o2)cc1)c1ccccc1 [Compound 11152, N-(4-(5-(difluoromethyl)-1,3,4-oxadiazol-2-yl)benzyl)-N-phenylpyridine-3-sulfonamide]
12 | 793 | 126 | CCS(=O)(=O)N(Cc1ccc(-c2nnc(C(F)(F)F)o2)cc1F)c1ccccc1 [Compound 11153, N-(2-fluoro-4-(5-(trifluoromethyl)-1,3,4-oxadiazol-2-yl)benzyl)-N-phenylethanesulfonamide]
13 | 5263 | 19 | CCS(=O)(=O)N(Cc1ccc(-c2nnc(C(F)F)o2)cc1F)c1ccccc1 [Compound 11154, N-(4-(5-(difluoromethyl)-1,3,4-oxadiazol-2-yl)-2-fluorobenzyl)-N-phenylethanesulfonamide]
14 | 1250 | 80 | O=S(=O)(c1cccnc1)N(Cc1ccc(-c2nnc(C(F)(F)F)o2)cc1)c1cccc(F)c1 [Compound 11155, N-(3-fluorophenyl)-N-(4-(5-(trifluoromethyl)-1,3,4-oxadiazol-2-yl)benzyl)pyridine-3-sulfonamide]
15 | 3448 | 29 | O=S(=O)(c1cccnc1)N(Cc1ccc(-c2nnc(C(F)F)o2)cc1)c1cccc(F)c1 [Compound 11156, N-(4-(5-(difluoromethyl)-1,3,4-oxadiazol-2-yl)benzyl)-N-(3-fluorophenyl)pyridine-3-sulfonamide]
16 | 4348 | 23 | CS(=O)(=O)N(Cc1ccc(-c2nnc(C(F)F)o2)cc1)c1ccccc1 [Compound 11168, N-(4-(5-(difluoromethyl)-1,3,4-oxadiazol-2-yl)benzyl)-N-phenylmethanesulfonamide]
17 | 7143 | 14 | CS(=O)(=O)N(Cc1ccc(-c2nnc(C(F)F)o2)cc1F)c1ccccc1 [Compound 11170, N-(4-(5-(difluoromethyl)-1,3,4-oxadiazol-2-yl)-2-fluorobenzyl)-N-phenylmethanesulfonamide]
18 | 11111 | 9 | CS(=O)(=O)N(Cc1ccc(-c2nnc(C(F)F)o2)cn1)c1ccccc1 [Compound 11172, N-((5-(5-(difluoromethyl)-1,3,4-oxadiazol-2-yl)pyridin-2-yl)methyl)-N-phenylmethanesulfonamide]
19 | 76 | 1310 | CS(=O)(=O)N(Cc1ccc(-c2nnc(C(F)F)o2)nc1)c1ccccc1 [Compound 11174, N-((6-(5-(difluoromethyl)-1,3,4-oxadiazol-2-yl)pyridin-3-yl)methyl)-N-phenylmethanesulfonamide]
20 | 559 | 179 | CS(=O)(=O)N(Cc1ccc(-c2nnc(C(F)(F)F)o2)cc1F)c1cccc(C(F)(F)F)c1 [Compound 11175, N-(2-fluoro-4-(5-(trifluoromethyl)-1,3,4-oxadiazol-2-yl)benzyl)-N-(3-(trifluoromethyl)phenyl)methanesulfonamide]
21 | 3571 | 28 | CS(=O)(=O)N(Cc1ccc(-c2nnc(C(F)F)o2)cc1F)c1cccc(C(F)(F)F)c1 [Compound 11176, N-(4-(5-(difluoromethyl)-1,3,4-oxadiazol-2-yl)-2-fluorobenzyl)-N-(3-(trifluoromethyl)phenyl)methanesulfonamide]
22 | 5000 | 20 | Cc1cccc(N(Cc2ccc(-c3nnc(C(F)F)o3)cc2F)S(C)(=O)=O)c1 [Compound 11178, N-(4-(5-(difluoromethyl)-1,3,4-oxadiazol-2-yl)-2-fluorobenzyl)-N-(m-tolyl)methanesulfonamide]
23 | 1613 | 62 | COc1cccc(N(Cc2ccc(-c3nnc(C(F)F)o3)cc2F)S(C)(=O)=O)c1 [Compound 11180, N-(4-(5-(difluoromethyl)-1,3,4-oxadiazol-2-yl)-2-fluorobenzyl)-N-(3-methoxyphenyl)methanesulfonamide]
